Measurements reported in US20230295200A1 (REGENTS OF THE UNIVERSITY OF MICHIGAN, priority 2022, published 2023).

biological target: T1, STAT5A (Homo sapiens, UniProt P42229); assay: Fluorescence polarization (FP) binding assay, STAT5A; conditions: FP competition, 5 nM fluorescein-labeled tracer, 200 nM protein, PBS pH7.4
T1 sequence (P42229 1-794): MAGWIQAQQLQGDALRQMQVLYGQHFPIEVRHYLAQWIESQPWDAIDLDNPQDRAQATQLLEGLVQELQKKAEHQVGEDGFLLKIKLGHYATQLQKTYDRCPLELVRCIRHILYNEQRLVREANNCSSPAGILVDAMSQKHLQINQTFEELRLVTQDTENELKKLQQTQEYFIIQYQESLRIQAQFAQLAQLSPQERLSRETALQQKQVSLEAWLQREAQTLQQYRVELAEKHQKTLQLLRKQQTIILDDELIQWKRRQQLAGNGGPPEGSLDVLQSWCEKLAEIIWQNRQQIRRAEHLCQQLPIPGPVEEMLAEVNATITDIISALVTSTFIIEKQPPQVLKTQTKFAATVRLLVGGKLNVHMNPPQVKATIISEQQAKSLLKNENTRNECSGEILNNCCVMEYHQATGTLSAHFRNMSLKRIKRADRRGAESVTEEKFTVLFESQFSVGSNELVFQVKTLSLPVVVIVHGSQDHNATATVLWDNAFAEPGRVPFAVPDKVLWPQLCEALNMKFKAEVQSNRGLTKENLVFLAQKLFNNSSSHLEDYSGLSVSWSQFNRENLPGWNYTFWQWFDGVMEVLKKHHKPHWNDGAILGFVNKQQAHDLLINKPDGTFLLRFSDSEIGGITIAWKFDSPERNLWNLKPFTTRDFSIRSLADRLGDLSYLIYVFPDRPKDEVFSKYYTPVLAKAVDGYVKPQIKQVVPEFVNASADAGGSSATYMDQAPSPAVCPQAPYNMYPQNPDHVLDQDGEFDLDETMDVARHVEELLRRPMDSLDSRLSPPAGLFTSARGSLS
Protocol: Evaluation of the activity of the inhibitors may be accomplished by fluorescence polarization (FP) experiments. A representative general protocol is the following:
Fluorescence polarization (FP) experiments are performed in black round-bottom plates using the CLARIOstar microplate reader. To each well, fluorescein-labeled tracer and STAT5 or STAT6 protein are added in assay buffer. […] The inhibition constants are determined as the concentration of the STAT5 or STAT6 at which 50% of the ligand is bound.
Fluorescence polarization (FP) experiments were performed in 96-well, black round-bottom plates (Microfluor 2, Fisher Scientific) using the CLARIOstar microplate reader (BMG Labtech). To each well, 5 nM of fluoresceinlabeled tracer and 200 nM of STAT5 and/or STAT6 protein were added to a final volume of 100 μl in the assay buffer (PBS pH7.4+0.01% BGG+0.01% Tween-20, 2 mM DTT). The plate was mixed on a shaker for 15 m and incubated at room temperature for 1 h to reach equilibrium. […] All experimental data were analyzed using Prism 8.0 software (GraphPad Software), and the inhibition constants were determined by nonlinear curve fitting as the concentration of the STAT5 and/or STAT6 at which 50% of the ligand is bound.

Ki, 0.1 to 1 µM:
CC(C)(C)[C@H](NC(=O)c1cc2cc(C(F)(F)P(=O)(O)O)ccc2s1)C(=O)N1CCC[C@H]1C(=O)Nc1ncc(-c2ccccc2)s1 [Compound 255, ((2-(((S)-3,3-dimethyl-1-oxo-1-((S)-2-((5-phenylthiazol-2-yl)carbamoyl)pyrrolidin-1-yl)butan-2-yl)carbamoyl)benzo[b]thiophen-5-yl)difluoromethyl)phosphonic acid]
CC(C)(C)[C@H](NC(=O)c1cc2cc(C(F)(F)P(=O)(O)O)ccc2s1)C(=O)N1CCC[C@H]1C(=O)Nc1ncc(-c2cccc(F)c2)s1 [Compound 260, (difluoro(2-(((S)-1-((S)-2-((5-(3-fluorophenyl)thiazol-2-yl)carbamoyl)pyrrolidin-1-yl)-3,3-dimethyl-1-oxobutan-2-yl)carbamoyl)benzo[b]thiophen-5-yl)methyl)phosphonic acid]

Ki, > 10 µM:
CC(C)(C)[C@H](NC(=O)c1cc2cc(C(F)(F)P(=O)(O)O)ccc2s1)C(=O)N1CCC[C@H]1C(=O)Nc1ncc(CO)s1 [Compound 248, (difluoro(2-(((S)-1-((S)-2-((5-(hydroxymethyl)thiazol-2-yl)carbamoyl)pyrrolidin-1-yl)-3,3-dimethyl-1-oxobutan-2-yl)carbamoyl)benzo[b]thiophen-5-yl)methyl)phosphonic acid]
CC(C)(C)[C@H](NC(=O)c1cc2cc(C(F)(F)P(=O)(O)O)ccc2s1)C(=O)N1CCC[C@H]1C(=O)Nc1ncc(-c2cc3ccccc3[nH]2)s1 [Compound 250, ((2-(((S)-1-((S)-2-((5-(1H-indol-2-yl)thiazol-2-yl)carbamoyl)pyrrolidin-1-yl)-3,3-dimethyl-1-oxobutan-2-yl)carbamoyl)benzo[b]thiophen-5-yl)difluoromethyl)phosphonic acid]
CC(C)c1cnc(NC(=O)[C@@H]2CCCN2C(=O)[C@@H](NC(=O)c2cc3cc(C(F)(F)P(=O)(O)O)ccc3s2)C(C)(C)C)s1 [Compound 251, (difluoro(2-(((S)-1-((S)-2-((5-isopropylthiazol-2-yl)carbamoyl)pyrrolidin-1-yl)-3,3-dimethyl-1-oxobutan-2-yl)carbamoyl)benzo[b]thiophen-5-yl)methyl)phosphonic acid]
CC(C)(C)c1cnc(NC(=O)[C@@H]2CCCN2C(=O)[C@@H](NC(=O)c2cc3cc(C(F)(F)P(=O)(O)O)ccc3s2)C(C)(C)C)s1 [Compound 252, ((2-(((S)-1-((S)-2-((5-(tert-butyl)thiazol-2-yl)carbamoyl)pyrrolidin-1-yl)-3,3-dimethyl-1-oxobutan-2-yl)carbamoyl)benzo[b]thiophen-5-yl)difluoromethyl)phosphonic acid]
CCCc1cnc(NC(=O)[C@@H]2CCCN2C(=O)[C@@H](NC(=O)c2cc3cc(C(F)(F)P(=O)(O)O)ccc3s2)C(C)(C)C)s1 [Compound 253, ((2-(((S)-3,3-dimethyl-1-oxo-1-((S)-2-((5-propylthiazol-2-yl)carbamoyl)pyrrolidin-1-yl)butan-2-yl)carbamoyl)benzo[b]thiophen-5-yl)difluoromethyl)phosphonic acid]
Cc1ccc(-c2cnc(NC(=O)[C@@H]3CCCN3C(=O)[C@@H](NC(=O)c3cc4cc(C(F)(F)P(=O)(O)O)ccc4s3)C(C)(C)C)s2)cc1 [Compound 258, ((2-(((S)-3,3-dimethyl-1-oxo-1-((S)-2-((5-(p-tolyl)thiazol-2-yl)carbamoyl)pyrrolidin-1-yl)butan-2-yl)carbamoyl)benzo[b]thiophen-5-yl)difluoromethyl)phosphonic acid]
CC(C)(C)[C@H](NC(=O)c1cc2cc(C(F)(F)P(=O)(O)O)ccc2s1)C(=O)N1CCC[C@H]1C(=O)Nc1ncc(-c2ccc(Cl)cc2)s1 [Compound 263, ((2-(((S)-1-((S)-2-((5-(4-chlorophenyl)thiazol-2-yl)carbamoyl)pyrrolidin-1-yl)-3,3-dimethyl-1-oxobutan-2-yl)carbamoyl)benzo[b]thiophen-5-yl)difluoromethyl)phosphonic acid]

Ki, 1 to 10 µM:
CC(C)(C)[C@H](NC(=O)c1cc2cc(C(F)(F)P(=O)(O)O)ccc2s1)C(=O)N1CCC[C@H]1C(=O)Nc1nccs1 [Compound 247, ((2-(((S)-3,3-dimethyl-1-oxo-1-((S)-2-(thiazol-2-ylcarbamoyl)pyrrolidin-1-yl)butan-2-yl)carbamoyl)benzo[b]thiophen-5-yl)difluoromethyl)phosphonic acid]
CC(C)(C)[C@H](NC(=O)c1cc2cc(C(F)(F)P(=O)(O)O)ccc2s1)C(=O)N1CCC[C@H]1C(=O)Nc1ncc(C2CCOCC2)s1 [Compound 249, ((2-(((S)-3,3-dimethyl-1-oxo-1-((S)-2-((5-(tetrahydro-2H-pyran-4-yl)thiazol-2-yl)carbamoyl)pyrrolidin-1-yl)butan-2-yl)carbamoyl)benzo[b]thiophen-5-yl)difluoromethyl)phosphonic acid]
CC(C)(C)[C@H](NC(=O)c1cc2cc(C(F)(F)P(=O)(O)O)ccc2s1)C(=O)N1CCC[C@H]1C(=O)Nc1ncc(C2CCCCC2)s1 [Compound 254, ((2-(((S)-1-((S)-2-((5-cyclohexylthiazol-2-yl)carbamoyl)pyrrolidin-1-yl)-3,3-dimethyl-1-oxobutan-2-yl)carbamoyl)benzo[b]thiophen-5-yl)difluoromethyl)phosphonic acid]
Cc1ccccc1-c1cnc(NC(=O)[C@@H]2CCCN2C(=O)[C@@H](NC(=O)c2cc3cc(C(F)(F)P(=O)(O)O)ccc3s2)C(C)(C)C)s1 [Compound 256, ((2-(((S)-3,3-dimethyl-1-oxo-1-((S)-2-((5-(o-tolyl)thiazol-2-yl)carbamoyl)pyrrolidin-1-yl)butan-2-yl)carbamoyl)benzo[b]thiophen-5-yl)difluoromethyl)phosphonic acid]
Cc1cccc(-c2cnc(NC(=O)[C@@H]3CCCN3C(=O)[C@@H](NC(=O)c3cc4cc(C(F)(F)P(=O)(O)O)ccc4s3)C(C)(C)C)s2)c1 [Compound 257, ((2-(((S)-3,3-dimethyl-1-oxo-1-((S)-2-((5-(m-tolyl)thiazol-2-yl)carbamoyl)pyrrolidin-1-yl)butan-2-yl)carbamoyl)benzo[b]thiophen-5-yl)difluoromethyl)phosphonic acid]
CC(C)(C)[C@H](NC(=O)c1cc2cc(C(F)(F)P(=O)(O)O)ccc2s1)C(=O)N1CCC[C@H]1C(=O)Nc1ncc(-c2ccccc2F)s1 [Compound 259, (difluoro(2-(((S)-1-((S)-2-((5-(2-fluorophenyl)thiazol-2-yl)carbamoyl)pyrrolidin-1-yl)-3,3-dimethyl-1-oxobutan-2-yl)carbamoyl)benzo[b]thiophen-5-yl)methyl)phosphonic acid]
CC(C)(C)[C@H](NC(=O)c1cc2cc(C(F)(F)P(=O)(O)O)ccc2s1)C(=O)N1CCC[C@H]1C(=O)Nc1ncc(-c2ccc(F)cc2)s1 [Compound 261, (difluoro(2-(((S)-1-((S)-2-((5-(4-fluorophenyl)thiazol-2-yl)carbamoyl)pyrrolidin-1-yl)-3,3-dimethyl-1-oxobutan-2-yl)carbamoyl)benzo[b]thiophen-5-yl)methyl)phosphonic acid]
CC(C)(C)[C@H](NC(=O)c1cc2cc(C(F)(F)P(=O)(O)O)ccc2s1)C(=O)N1CCC[C@H]1C(=O)Nc1ncc(-c2cccc(Cl)c2)s1 [Compound 262, ((2-(((S)-1-((S)-2-((5-(3-chlorophenyl)thiazol-2-yl)carbamoyl)pyrrolidin-1-yl)-3,3-dimethyl-1-oxobutan-2-yl)carbamoyl)benzo[b]thiophen-5-yl)difluoromethyl)phosphonic acid]
CC(C)(C)[C@H](NC(=O)c1cc2cc(C(F)(F)P(=O)(O)O)ccc2s1)C(=O)N1CCC[C@H]1C(=O)Nc1ncc(-c2ccc(Br)cc2)s1 [Compound 264, ((2-(((S)-1-((S)-2-((5-(4-bromophenyl)thiazol-2-yl)carbamoyl)pyrrolidin-1-yl)-3,3-dimethyl-1-oxobutan-2-yl)carbamoyl)benzo[b]thiophen-5-yl)difluoromethyl)phosphonic acid]
